Columns and labels:
MV-4-11 = assay: Oncology cell growth assay, MV-4-11 3 d growth; format: cell-based; conditions: Homo sapiens, MV4-11; MV-4-11 cells, 72 hours, CellTiter Glo; read-out: Cell activity (IC50 μM) MV-4-11 3 d-Growtb
Method: (§1) In this study, we test compounds in different cancer cell lines. MV-4-11 and MOLM-13 are AML cell lines harboring a MLL-AF4 and MLL-AF9 translocation, respectively. MM.1S is a multiple myeloma cell line. SK—N-AS, IMR-32 and SK-N-BE(2) are neuroblastoma cell lines. IMR-32 and SK-N-BE(2) cell lines harbor MYCN amplifications.
(§2) MV-4-11, MM.1S, IMR-32, SK-N-AS and SK-N-BE(2) were obtained from ATCC (IL, USA) and MOLM-13 were purchased from DSMZ (Braunschweig, German). Cells are cultured as recommended by their sources. For growth inhibition studies 3000 cells are seeded in wells of a 96-well plate in 75 μL of culture media. After several hours, growth media containing compounds of formula (I) are added to the wells. Compound at a maximal concentration of 5 mM was serially diluted 1:3 for a total of 8 point titration with DMSO as a control. A 1 μL aliquot of each dilution point is added to 249 μL growth media and 75 μL is added to each well containing cells, providing 10 μM compound at the maximum concentration point. The final concentration of DMSO in all wells is 0.2%. Cells are incubated for 72 hours, and 25 μL of CellTiter Glo Reagent (Promega Ga., USA) is added to each well. Plates are shaken for approximately 10 minutes and chemiluminescent signal is read on Tecan microplate reader. The measured luminescence correlates directly with cell number.
(§3) All data is normalized to the mean of eight DMSO high control wells on each plate. A four parameter curve fit of the following formula was then applied: Y=a+(b−a)/(1+(x/c)^d) Where ‘a’ is the minimum, ‘b’ is the maximum, ‘c’ is the pIC50 and ‘d’ is the Hill slope. […] Myc Reporter Assay

[1] = system: cancer cell lines / MV-4-11 Myc reporter cell line; assay: Bromodomain cell assays of Example 8 (at least one of them); format: cell-based; conditions: Homo sapiens, MV4-11; at least one of the bromodomain cell assays described in Example 8
Method: as §1, §2, §3
In MV-4-11 cells, BRD2, BRD3 and BRD4 bind to the promoter region of MYC and regulate its transcription (Dawson M A et al. 2011). The literature bromodomain inhibitor iBET 151 could disrupt BRD4 recruitment to the MYC promoter and subsequently downregulate c-myc transcription (Dawson M A et al. 2011). Myc protein is a transcription factor that heterodimerizes with an obligatory partner Max and regulates the transcription of genes important for cell proliferation, differentiation, and apoptosis. This Myc reporter assay is used to monitor the inhibitory effect of compound of formula (I) on Myc dependent gene expression. Effective compounds could have potential therapeutic effects in Myc-driven tumors.
The MV-4-11 Myc reporter cell line is established by infecting MV-4-11 with VSV-g pseudotyped lentivirus expressing the firefly luciferase gene under the control of a minimal (m) CMV promoter and tandem repeats of the E-box transcriptional response element (TRE) (Qiagen IL, USA) and selecting cells in 2.5 μg/ml Puromycin.
The MV-4-11 Myc reporter cell line is maintained in Iscove's Modified Dulbecco's Medium containing 10% FBS, 1% PenStep and 2.5 μg/ml Puromycin. Cells are incubated at 37° C. in a humidified atmosphere with 5% CO2. 25,000 cells are seeded in 96-well plate in 50 μL of culture media. After several hours, growth media containing 2× compounds are added to the wells. Compound at a maximal concentration of 5 mM is serially diluted 1:3 for a total of 8 point titration. A 1 μl aliquot of each dilution point is added to 249 μl growth media and 50 μl is added to each well containing cells, providing 10 μM compound at the maximum concentration point. DMSO treated cells serve as a high control and 10 μM JQ1 treated cells serve as a low control. Cells are incubated for a further 24 hours and 25 μL of CellTiter-Fluo Reagent (Promega Ga., USA) is added to each well. Plates are shaken for approximately 2 minutes and incubated at 37° C. for 0.5 hour. Fluorescence signal is read in a Tecan Plate reader (λex=400 nm, λcm=505 nm). 25 μL of One-Glo Reagent (Promega Ga., USA) is then added to the plates. Chemiluminescent signal is read on Tecan plate reader. Values from the wells with no cells are subtracted from all samples for background correction. […]

BRD4-BD12 = molecular target: T1, BRD4-BD12 (Homo sapiens, UniProt O60885); assay: Alphascreen binding assay, BRD4(1 2) H4; conditions: BRD4 dual bromodomains with acetylated Histone 4 peptide, read-out: Biochemical activity (IC50 μM) BRD4(1 2) H4
T1 construct: dual bromodomains (BRD4-BD12 (1-477), BRD4-BD12 (1-472)); six-His tag (N); made in house; host or cells: E. coli BL21-CodonPlus (DE3)
Method: Binding of compounds of formula (I) with bromodomain 2, 3 4 was assessed using Alphascreen binding assay. The inhibition of the interaction between bromodomain and its acetylated target protein (Filippakopoulos P et al. 2012) was measured quantitatively using recombinant BRD proteins, an acetylated Histone 4 peptide and AlphaScreen™ technology. In absence of inhibition the BRD protein bound to AlphaScreen™ nickel chelate acceptor beads can interact with the acetylated Histone 4 peptide which is immobilized by the AlphaScreen™ Streptavidin coated beads. This interaction brings donor and acceptor beads in proximity. The close proximity allows the singlet oxygen produced by laser excitation of the donor beads to reach the acceptor beads and generate a luminescence signal. BRD inhibitors result in a decrease in the proximity signal through an inhibition of the BRD acetylated peptide interaction.
Recombinant human bromodomains containing the N-terminal bromodomain (BRD2-BD1 (71-194), BRD3-BD1 (24-144) and BRD4-BD1 (44-164)) or dual bromodomains (BRD4-BD12 (1-477), BRD4-BD12 (1-472)) were prepared and purified as described in protein expression and purification session. The peptide is human Histone H41-21K5AcK8AcK12AcK16Ac-Biotin (Anaspec Calif., USA).
Protocol for BRD2, BRD3 and BRD4 assay: All components are prepared in buffer composed of 50 mM HEPES pH 7.5, 100 mM NaCl, 0.01% BSA, 0.01% Triton X-100, 2 mM DTT. 7 μL of Bromodomain protein and 7 μL of peptide are added to wells containing 1 μL of various concentrations of test compounds of formula (I) or DMSO vehicle in an Alphaplate (PerkinElmer Ga., USA) and incubated for 1 hour at room temperature. 4 μL donor and acceptor bead mixture is then added with final concentrations of 7.5 μg/ml. 30 minutes after bead addition, Alpha signal is read on the Envision spectrometer (λEx 680 nm, λEm 520-620 nm). Final concentrations of bromodomain proteins and peptide are as shown below.
All data was normalized to the mean of 16 high and 16 low control wells on each plate. A four parameter curve fit of the following formula was then applied: Y=a+(b−a)/(1+(x/c)^d) Where ‘a’ is the minimum, ‘b’ is the maximum, ‘c’ is the pIC50 and ‘d’ is the Hill slope. Protein Expression and Purification
Recombinant human bromodomains containing the N-terminal bromodomain (BRD2-BD1 (71-194), BRD3-BD1 (24-144) and BRD4-BD1 (44-164)) or dual bromodomains (BRD4-BD12 (1-477), BRD4-BD12 (1-472)) were expressed in E. coli cells (in a modified pET vector) with an N-terminal six-His tag and purified using a combination of both IMAC (Ni-affinity) and size exclusion chromatography steps.
Recombinant BRD proteins were expressed using the E. coli strain BL21-CodonPlus (DE3) (Agilent Technologies CA, USA). Cells were grown in Terrific Broth (TB) media to an OD600 of 1.2 at 37° C. at which temperature was reduced to 25° C., protein was induced with 1.0 mM IPTG for 12-18 hours and harvested by centrifugation at 8000×g for 20 minutes. Cells were re-suspended in 0.1M KPO4 pH 8.0, 250 mM NaCl, 10% Glycerol, 0.75% NP-40, 25 mM Imidazole, 5 mM BME with 0.2 mg/ml Lysosyme, 2.0 mM PMSF, 25 μg/ml DNAse I, incubated on ice for 30 minutes and lyzed with a cell disruptor (MicroFluidics MA, USA). The lysate was clarified by centrifugation at 20,000×g for 2 hours. The protein was captured with Ni-NTA resin (Life Technologies, USA). Contaminating proteins were washed off with 25 mM Tris-HCl pH 8.3, 250 mM NaCl, 12% Glycerol and 50 mM Imidazole. Following 3× wash steps, protein was eluted step wise using a 50 mM HEPES pH 7.5, 500 mM NaCl and 400 mM Imidazole. The protein was further purified using Gel Filtration column 26/600 Superdex 200 (GE Biosciences N.J., USA) in 50 mM HEPES pH 7.5, 250 mM NaCl. The protein was aliquoted and flash-frozen in liquid Nitrogen.

Row | Compound | IC50 (MV-4-11) | IC50 [1] | IC50 (BRD4-BD12)
1 | Cc1noc(C)c1-c1cnc2c(-c3ccc(CC(=O)O)cc3)cn([C@@H](C)c3ccccn3)c2n1 [Compound P-2052, 2-[4-[3-(3,5-dimethylisoxazol-4-yl)-5-[(1S)-1-(2-pyridyl)ethyl]pyrrolo[2,3-b]pyrazin-7-yl]phenyl]acetic acid] | ≤ 1 µM | < 10000 nM | ≤ 1 µM
2 | Cc1noc(C)c1-c1cnc2c(-c3cnn(C(F)F)c3)nn(CC3(F)CCCCC3)c2c1 [Compound P-2088, 4-[3-[1-(difluoromethyl)pyrazol-4-yl]-1-[(1-fluorocyclohexyl)methyl]pyrazolo[4,3-b]pyridin-6-yl]-3,5-dimethyl-isoxazole] | ≤ 1 µM | < 10000 nM | ≤ 1 µM
3 | COC(=O)Cc1ccc(-c2nn([C@@H](C)c3ccccn3)c3cc(-c4c(C)noc4C)ccc23)cc1 [Compound P-2012, methyl 2-[4-[6-(3,5-dimethylisoxazol-4-yl)-1-[(1S)-1-(2-pyridyl)ethyl]indazol-3-yl]phenyl]acetate] | ≤ 1 µM | < 10000 nM | ≤ 1 µM
4 | [2H]C([2H])(C1CCC(F)(F)CC1)n1cc(-c2ccc(C(=O)OC)cc2)c2ncc(-c3c(C)noc3C)nc21 [Compound P-2043, methyl 4-[5-[dideuterio-(4,4-difluorocyclohexyl)methyl]-3-(3,5-dimethylisoxazol-4-yl)pyrrolo[2,3-b]pyrazin-7-yl]benzoate] | 1 to 10 µM | < 10000 nM | ≤ 1 µM
5 | COC(=O)c1ccc(-c2nn(C(c3ccccc3)c3ccccn3)c3cc(-c4c(C)noc4C)ccc23)cc1 (stereo not drawn) [Compound P-2006, methyl 4-[6-(3,5-dimethylisoxazol-4-yl)-1-[phenyl(2-pyridyl)methyl]indazol-3-yl]benzoate] | ≤ 1 µM | < 10000 nM | ≤ 1 µM
6 | Cc1noc(C)c1-c1cnc2c(-c3cnn(C)c3)nn(CC3CC(F)(F)C3)c2c1 [Compound P-2086, 4-[1-[(3,3-difluorocyclobutyl)methyl]-3-(1-methylpyrazol-4-yl)pyrazolo[4,3-b]pyridin-6-yl]-3,5-dimethyl-isoxazole] | ≤ 1 µM | < 10000 nM | ≤ 1 µM
7 | Cc1noc(C)c1-c1cnc2ncn(C(c3ccccc3)c3ccccn3)c2c1 (stereo not drawn) [Compound P-2103, 3,5-dimethyl-4-[1-[phenyl(2-pyridyl)methyl]imidazo[4,5-b]pyridin-6-yl]isoxazole] | ≤ 1 µM | < 10000 nM | ≤ 1 µM
8 | Cc1noc(C)c1-c1cnc2c(-c3cnn(CC(F)(F)F)c3)nn(CC3CC(F)(F)C3)c2c1 [Compound P-2087, 4-[1-[(3,3-difluorocyclobutyl)methyl]-3-[1-(2,2,2-trifluoroethyl)pyrazol-4-yl]pyrazolo[4,3-b]pyridin-6-yl]-3,5-dimethyl-isoxazole] | ≤ 1 µM | < 10000 nM | ≤ 1 µM
9 | [2H]C([2H])(C1CCC(F)(F)CC1)n1ccc2ncc(-c3c(C)noc3C)nc21 [Compound P-2038, 4-[5-[dideuterio-(4,4-difluorocyclohexyl)methyl]pyrrolo[2,3-b]pyrazin-3-yl]-3,5-dimethyl-isoxazole] | 1 to 10 µM | < 10000 nM | ≤ 1 µM
10 | COC(=O)Cc1ccc(-c2nn(C(c3ccccc3)c3ccccn3)c3cc(-c4c(C)noc4C)ccc23)cc1 (stereo not drawn) [Compound P-2008, methyl 2-[4-[6-(3,5-dimethylisoxazol-4-yl)-1-[phenyl(2-pyridyl)methyl]indazol-3-yl]phenyl]acetate] | ≤ 1 µM | < 10000 nM | ≤ 1 µM
11 | [2H]C([2H])(C1CCC(F)(F)CC1)n1cc(-c2cnn(C)c2)c2ncc(-c3c(C)noc3C)nc21 [Compound P-2040, 4-[5-[dideuterio-(4,4-difluorocyclohexyl)methyl]-7-(1-methylpyrazol-4-yl)pyrrolo[2,3-b]pyrazin-3-yl]-3,5-dimethyl-isoxazole] | ≤ 1 µM | < 10000 nM | ≤ 1 µM
12 | Cc1noc(C)c1-c1ccc2c(I)nn(C(c3ccccc3)c3ccccn3)c2c1 (stereo not drawn) [Compound P-2003, 4-[3-iodo-1-[phenyl(2-pyridyl)methyl]indazol-6-yl]-3,5-dimethyl-isoxazole] | ≤ 1 µM | < 10000 nM | ≤ 1 µM

— patent US9856259B2, “Heterocyclic compounds and uses thereof” (Plexxikon Inc., priority 2014, dated 2018)
